# Experimental data published in patent publication US12180084B2, “Cerium (III) carbonate formulations” (THE REGENTS OF THE UNIVERSITY OF CALIFORNIA, priority 2019, dated 2024).
# Experiments:
# [1] = CR dye photodegradation in ZnO-based sunscreen film (Neutrogena Sheer Zinc Face Mineral Sunscreen SPF 50); details: 1.5 wt. % added agent relative to sunscreen weight
# Description: Therefore, the extent of photodegradation upon UV irradiation in a photoreactor, using the same setup and ZnO-based sunscreen formulation (Neutrogena Sheer Zinc Face™ Mineral Sunscreen SPF 50) as in Examples 7.1 and 7.2 above, except now using Congo Red (CR) rather than MB dye was investigated. For this investigation, a homogeneous composite mixture was prepared by mixing the ZnO-based (Neutrogena Sheer Zinc Face™ Mineral Sunscreen SPF 50) sunscreen, and CR dye in the similar way as described in Example 7.1 for MB, except now using 10^−3 M CR dye (0.6 mL) instead of 10^−3 M MB dye (0.6 mL). Similarly, a composite sunscreen mixture comprising UV-protecting agent was prepared with synthesized Ce2(CO3)3·6H2O (1.5 wt. % relative to sunscreen weight), following the procedure of Example 7.2. The investigation of CR dye photodegradation in sunscreen films, was also conducted in similar fashion as described in Examples 7.1 for the case of no added UV-protecting agent and 7.2 for the case of added Ce2(CO3)3·6H2O UV-protecting agent, except for the following changes. First, the CR sunscreen films were salmon colored on the same filter paper, and the duration of UV-irradiation in the photoreactor was 5 h instead of 4 h. Second, 2 mL of N,N-dimethylformamide was used for CR dye extraction, instead of 2 mL of ethanol as used for MB dye extraction. […]
# [2] = MB dye photodegradation in octacrylene-based sunscreen film (Blue Lizard Kids Australian Sunscreen SPF 30+); details: 1.5 wt. % added agent
# Description: Films on filter paper were fabricated and photoreactor experiments were conducted exactly the same way as described in Example 7.2, using MB dye, except UV irradiation in the photoreactor was conducted for a period of 4 h. These films contained either no UV-protecting agent, or 1.5 wt. % of Ce2(CO3)3·6H2O that was synthesized according to Example 3. The slurry formulation for film fabrication, photoexposure to UV light, and MB dye extraction in ethanol were performed similar to Example 7.2, except Blue Lizard® Kids Australian Sunscreen SPF 30+ was used.
# A 30 nm blue-shift of the wavelength of the absorbance maximum was observed (from 654 nm initially to 624 nm after 4 h of UV irradiation in the photoreactor). The degree of photodegradation was calculated by UV-visible spectrophotometry, by assuming the same extinction coefficient at 654 nm before UV irradiation and 624 nm after 4 h of UV irradiation in the photoreactor. Data in FIG. 25A corresponds to 64% MB dye photodegradation.
# RBL-2H3 rat-cell line = experiment: Toxicity of mammalian cells to cerium carbonate, microscopy imaging; assay type: cell-based; details: 10 microliter of 1 mg in 1 mL water dispersion, imaging 20 min after addition
# Description: A RBL-2H3 rat-cell line was used from the Berkeley cell-culture facility. […] Prior to microscopy imaging, cells were stored under 5% CO2 in air atmosphere at 37° C. A 10 microliter aliquot of an aqueous dispersion comprising 1 mg of cerium carbonate Ce2(CO3)3·6H2O (micron sized) in 1 mL of deionized water was added to the RBL-2H3 cells in the Petri dish. Microscopy imaging of the cells was performed before and 20 min after addition of the cerium carbonate. […] This viability of the cells appears to be similar both before and after treatment with cerium carbonate Ce2(CO3)3·6H2O (micron sized).
structure (smiles),measurement,setting,value
O.O.O.O.O.O.O=C([O-])[O-].O=C([O-])[O-].O=C([O-])[O-].[Ce+3].[Ce+3] [Ce2(CO3)3·6H2O],% of CR dye photodegradation after 5 h of UV irradiation in photoreactor,[1],9±1%
same,% of CR dye photodegradation after 5 h of UV irradiation in photoreactor,[1]; listed as Ce2(CO3)3•6H2O synthesized according to Example 3,9 ± 1%
same,MB dye degradation after 4 h of UV irradiation in photoreactor,[2],45%
same,"toxicity to cells (cell shape, viability)",RBL-2H3 rat-cell line,generally non-toxic to the cells
